Assay results as given in ChEMBL document CHEMBL4507262, “Data for DCP probe A-1596586” (2021).

Columns and labels:
[1] = biological target: Tyrosine-protein kinase ABL1 (Homo sapiens) (UniProt P00519); settings: Compound concentration 1000.0 nM
[2] = biological target: BMP-2-inducible protein kinase (Homo sapiens) (UniProt Q9NSY1); settings: Compound concentration 1000.0 nM
[3] = organism: Rattus norvegicus; settings: Compound concentration 10.0 uM
[4] = biological target: SRSF protein kinase 3 (Homo sapiens) (UniProt Q9UPE1); settings: Compound concentration 1000.0 nM
[5] = system: Tyrosine-protein kinase ABL1 (Homo sapiens), P00519 [T315I]; settings: Compound concentration 1000.0 nM
[6] = biological target: Focal adhesion kinase 1 (Homo sapiens) (UniProt Q05397); settings: Compound concentration 1000.0 nM
[7] = GPCRScan assay: inhibition of GABA/PBR; parameters: species or system Rattus norvegicus; radioligand conc. used [nm] 0.3 – 2.0, parental cells brain tissue
[8] = biological target: Glutamate NMDA receptor (Rattus norvegicus) (UniProt P35439+Q00959+Q00960+Q00961+Q62645+Q8VHN2+Q9R1M7); experiment: PCP Eurofins-Cerep binding assay; format: protein-complex assay; parameters: ligand concentration 10 nM; settings: filed as antagonist, Compound concentration 10.0 uM
[9] = biological target: L-type Ca2+ channel (dihydropyridine site) (Rattus norvegicus, UniProt P22002+P27732+Q02485); experiment: Ca2+ channel (L, dihydropyridine site) Eurofins-Cerep binding assay; format: protein assay; parameters: incubation time 90 min, incubation temperature RT, ligand concentration 0.1 nM; settings: rat cerebral cortex, probe [3H]nitrendipine (0.1 nM), compound concentration 10 uM, read-out: % Inhibition of Control Specific Binding (Mean n=2)
[10] = biological target: Phosphatidylinositol 4,5-bisphosphate 3-kinase catalytic subunit beta isoform (Homo sapiens) (UniProt P42338); settings: Compound concentration 1000.0 nM
[11] = biological target: Mitogen-activated protein kinase 4 (Homo sapiens) (UniProt P31152); settings: Compound concentration 1000.0 nM
[12] = biological target: Fibroblast growth factor receptor 2 (Homo sapiens) (UniProt P21802); settings: Compound concentration 1000.0 nM
[13] = biological target: D(4) dopamine receptor (Homo sapiens) (UniProt P21917); settings: Compound concentration 10.0 uM
[14] = biological target: Serine/threonine-protein kinase Sgk1 (Homo sapiens) (UniProt O00141); settings: Compound concentration 1000.0 nM
[15] = system: Epidermal growth factor receptor (Homo sapiens), P00533 [UNDEFINED MUTATION]; settings: Compound concentration 1000.0 nM
[16] = biological target: Calcium/calmodulin-dependent protein kinase type II subunit delta (Homo sapiens) (UniProt Q13557); settings: Compound concentration 1000.0 nM
[17] = biological target: cAMP-dependent protein kinase catalytic subunit alpha (Homo sapiens) (UniProt P17612); settings: Compound concentration 1000.0 nM
[18] = biological target: TGF-beta receptor type-1 (Homo sapiens) (UniProt P36897); settings: Compound concentration 1000.0 nM
[19] = biological target: 5-hydroxytryptamine receptor 1A (Homo sapiens) (UniProt P08908); experiment: 5-HT1A (h) Eurofins-Cerep binding assay; parameters: ligand concentration 0.5 nM; settings: filed as agonist, Compound concentration 10.0 uM
[20] = biological target: Sigma non-opioid intracellular receptor 1 (Homo sapiens, UniProt Q99720); experiment: sigma (non-selective) (h) Eurofins-Cerep binding assay; parameters: ligand concentration 10 nM; settings: filed as agonist, Compound concentration 10.0 uM
[21] = biological target: Dual specificity protein kinase TTK (Homo sapiens) (UniProt P33981); settings: Compound concentration 1000.0 nM
[22] = biological target: Dual serine/threonine and tyrosine protein kinase (Homo sapiens) (UniProt Q6XUX3); settings: Compound concentration 1000.0 nM
[23] = biological target: Serine/threonine-protein kinase B-raf (Homo sapiens) (UniProt P15056); settings: Compound concentration 1000.0 nM
[24] = biological target: Translocator protein (Rattus norvegicus) (UniProt P16257); experiment: BZD (peripheral) Eurofins-Cerep binding assay; parameters: ligand concentration 0.2 nM; settings: filed as antagonist, Compound concentration 10.0 uM
[25] = biological target: Cannabinoid receptor 1 (Homo sapiens) (UniProt P21554); experiment: CB1 (h) Eurofins-Cerep binding assay; parameters: ligand concentration 0.5 nM; settings: filed as agonist, Compound concentration 10.0 uM
[26] = biological target: Ephrin type-B receptor 6 (Homo sapiens) (UniProt O15197); settings: Compound concentration 1000.0 nM
[27] = biological target: Cyclin-dependent kinase 13 (Homo sapiens) (UniProt Q14004); settings: Compound concentration 1000.0 nM
[28] = biological target: Serine/threonine-protein kinase 24 (Homo sapiens) (UniProt Q9Y6E0); settings: Compound concentration 1000.0 nM
[29] = biological target: Tyrosine-protein kinase receptor UFO (Homo sapiens) (UniProt P30530); settings: Compound concentration 1000.0 nM
[30] = biological target: Tyrosine-protein kinase CSK (Homo sapiens) (UniProt P41240); settings: Compound concentration 1000.0 nM
[31] = biological target: Dual specificity protein kinase CLK1 (Homo sapiens) (UniProt P49759); settings: Compound concentration 1000.0 nM
[32] = biological target: Calcium/calmodulin-dependent protein kinase type 1 (Homo sapiens) (UniProt Q14012); settings: Compound concentration 1000.0 nM
[33] = biological target: MAP kinase-activated protein kinase 2 (Homo sapiens) (UniProt P49137); settings: Compound concentration 1000.0 nM
[34] = biological target: Casein kinase I isoform delta (Homo sapiens) (UniProt P48730); settings: Compound concentration 1000.0 nM
[35] = biological target: Cyclin-dependent kinase 18 (Homo sapiens) (UniProt Q07002); settings: Compound concentration 1000.0 nM
[36] = biological target: Phosphatidylinositol 4,5-bisphosphate 3-kinase catalytic subunit alpha isoform (Homo sapiens) (UniProt P42336); settings: Compound concentration 1000.0 nM
[37] = biological target: Sulfonylurea receptors; K-ATP channels (Rattus norvegicus) (UniProt Q63563+P70673+Q63664+Q09429); experiment: KATP channel Eurofins-Cerep binding assay; format: protein-complex assay; parameters: ligand concentration 0.1 nM; settings: filed as antagonist, Compound concentration 10.0 uM
[38] = system: Phosphatidylinositol 4,5-bisphosphate 3-kinase catalytic subunit alpha isoform (Homo sapiens), P42336 [M1043I]; settings: Compound concentration 1000.0 nM
[39] = biological target: SRSF protein kinase 1 (Homo sapiens) (UniProt Q96SB4); settings: Compound concentration 1000.0 nM
[40] = biological target: Calcium/calmodulin-dependent protein kinase type II subunit alpha (Homo sapiens) (UniProt Q9UQM7); settings: Compound concentration 1000.0 nM
[41] = biological target: Calcium/calmodulin-dependent protein kinase type II subunit gamma (Homo sapiens) (UniProt Q13555); settings: Compound concentration 1000.0 nM
[42] = biological target: Casein kinase I isoform gamma-2 (Homo sapiens) (UniProt P78368); settings: Compound concentration 1000.0 nM
[43] = biological target: Serine/threonine-protein kinase MARK2 (Homo sapiens) (UniProt Q7KZI7); settings: Compound concentration 1000.0 nM
[44] = biological target: Protein kinase C theta type (Homo sapiens) (UniProt Q04759); settings: Compound concentration 1000.0 nM

Sigma non-opioid intracellular receptor 1, sequence (Q99720 whole entry): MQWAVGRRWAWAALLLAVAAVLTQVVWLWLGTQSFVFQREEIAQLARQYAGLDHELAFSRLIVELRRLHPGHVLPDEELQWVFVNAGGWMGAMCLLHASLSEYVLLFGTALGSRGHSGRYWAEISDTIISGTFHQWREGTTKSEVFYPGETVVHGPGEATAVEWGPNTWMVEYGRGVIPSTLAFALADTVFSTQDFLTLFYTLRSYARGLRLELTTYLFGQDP
BMP-2-inducible protein kinase (Homo sapiens), sequence (Q9NSY1 whole entry, looked up): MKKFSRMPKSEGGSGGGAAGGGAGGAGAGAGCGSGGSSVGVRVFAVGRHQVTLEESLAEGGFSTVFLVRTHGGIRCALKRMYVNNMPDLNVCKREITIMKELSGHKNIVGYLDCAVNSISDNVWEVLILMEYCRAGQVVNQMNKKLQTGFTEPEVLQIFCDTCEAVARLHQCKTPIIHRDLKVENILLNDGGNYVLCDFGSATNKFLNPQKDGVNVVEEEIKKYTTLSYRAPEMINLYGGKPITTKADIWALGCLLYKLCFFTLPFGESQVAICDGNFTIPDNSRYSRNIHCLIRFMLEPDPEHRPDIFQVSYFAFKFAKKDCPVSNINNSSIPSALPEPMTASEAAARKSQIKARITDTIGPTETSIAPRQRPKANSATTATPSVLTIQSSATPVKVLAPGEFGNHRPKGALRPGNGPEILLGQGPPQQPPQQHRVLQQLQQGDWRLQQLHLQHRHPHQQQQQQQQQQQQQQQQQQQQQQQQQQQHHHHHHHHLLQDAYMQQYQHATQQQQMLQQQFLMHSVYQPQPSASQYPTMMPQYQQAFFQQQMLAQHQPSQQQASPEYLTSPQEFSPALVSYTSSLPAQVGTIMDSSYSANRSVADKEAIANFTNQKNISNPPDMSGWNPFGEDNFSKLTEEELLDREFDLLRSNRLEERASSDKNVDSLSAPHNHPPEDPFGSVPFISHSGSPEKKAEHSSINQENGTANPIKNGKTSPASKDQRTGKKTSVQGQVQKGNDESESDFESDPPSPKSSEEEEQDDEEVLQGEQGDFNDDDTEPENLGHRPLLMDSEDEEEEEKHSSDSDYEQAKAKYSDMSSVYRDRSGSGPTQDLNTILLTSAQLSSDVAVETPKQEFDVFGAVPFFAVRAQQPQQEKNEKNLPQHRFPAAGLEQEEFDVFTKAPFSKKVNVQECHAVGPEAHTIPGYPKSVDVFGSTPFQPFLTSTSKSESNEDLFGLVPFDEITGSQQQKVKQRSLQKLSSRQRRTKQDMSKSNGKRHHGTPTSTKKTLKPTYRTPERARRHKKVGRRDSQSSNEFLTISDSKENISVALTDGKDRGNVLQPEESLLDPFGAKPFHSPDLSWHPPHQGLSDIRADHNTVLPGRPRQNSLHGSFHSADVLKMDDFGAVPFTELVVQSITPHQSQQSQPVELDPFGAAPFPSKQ
Phosphatidylinositol 4,5-bisphosphate 3-kinase catalytic subunit alpha isoform (Homo sapiens), sequence (P42336 whole entry, canonical isoform): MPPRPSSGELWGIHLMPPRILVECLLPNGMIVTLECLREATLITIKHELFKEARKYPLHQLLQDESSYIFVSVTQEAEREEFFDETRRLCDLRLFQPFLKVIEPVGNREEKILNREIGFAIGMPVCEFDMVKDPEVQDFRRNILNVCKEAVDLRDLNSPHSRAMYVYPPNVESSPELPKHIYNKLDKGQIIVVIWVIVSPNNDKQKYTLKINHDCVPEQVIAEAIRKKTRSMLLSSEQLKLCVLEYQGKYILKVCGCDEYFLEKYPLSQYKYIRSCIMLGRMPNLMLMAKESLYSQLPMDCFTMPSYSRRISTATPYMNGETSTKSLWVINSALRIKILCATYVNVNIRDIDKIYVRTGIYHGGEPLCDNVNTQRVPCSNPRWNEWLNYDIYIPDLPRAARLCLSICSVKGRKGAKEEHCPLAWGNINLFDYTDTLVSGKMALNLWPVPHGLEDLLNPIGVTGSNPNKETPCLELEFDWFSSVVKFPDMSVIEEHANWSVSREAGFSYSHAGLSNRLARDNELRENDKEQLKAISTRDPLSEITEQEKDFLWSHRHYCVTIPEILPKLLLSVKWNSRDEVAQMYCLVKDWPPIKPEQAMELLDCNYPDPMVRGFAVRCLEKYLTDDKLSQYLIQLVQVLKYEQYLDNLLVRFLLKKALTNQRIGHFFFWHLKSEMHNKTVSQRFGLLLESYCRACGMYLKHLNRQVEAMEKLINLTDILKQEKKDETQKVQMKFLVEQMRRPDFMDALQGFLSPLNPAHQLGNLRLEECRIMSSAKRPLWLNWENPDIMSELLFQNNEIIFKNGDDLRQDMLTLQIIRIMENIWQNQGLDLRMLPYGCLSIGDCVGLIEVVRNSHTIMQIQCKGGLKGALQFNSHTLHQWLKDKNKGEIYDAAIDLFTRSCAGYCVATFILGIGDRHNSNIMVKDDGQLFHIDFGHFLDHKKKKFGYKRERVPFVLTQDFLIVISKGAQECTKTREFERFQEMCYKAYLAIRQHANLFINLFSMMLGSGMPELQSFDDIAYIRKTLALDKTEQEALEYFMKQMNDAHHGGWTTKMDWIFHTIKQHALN
Epidermal growth factor receptor (Homo sapiens), P00533 [UNDEFINED MUTATION], sequence (P00533 whole entry, looked up, stated change not applied): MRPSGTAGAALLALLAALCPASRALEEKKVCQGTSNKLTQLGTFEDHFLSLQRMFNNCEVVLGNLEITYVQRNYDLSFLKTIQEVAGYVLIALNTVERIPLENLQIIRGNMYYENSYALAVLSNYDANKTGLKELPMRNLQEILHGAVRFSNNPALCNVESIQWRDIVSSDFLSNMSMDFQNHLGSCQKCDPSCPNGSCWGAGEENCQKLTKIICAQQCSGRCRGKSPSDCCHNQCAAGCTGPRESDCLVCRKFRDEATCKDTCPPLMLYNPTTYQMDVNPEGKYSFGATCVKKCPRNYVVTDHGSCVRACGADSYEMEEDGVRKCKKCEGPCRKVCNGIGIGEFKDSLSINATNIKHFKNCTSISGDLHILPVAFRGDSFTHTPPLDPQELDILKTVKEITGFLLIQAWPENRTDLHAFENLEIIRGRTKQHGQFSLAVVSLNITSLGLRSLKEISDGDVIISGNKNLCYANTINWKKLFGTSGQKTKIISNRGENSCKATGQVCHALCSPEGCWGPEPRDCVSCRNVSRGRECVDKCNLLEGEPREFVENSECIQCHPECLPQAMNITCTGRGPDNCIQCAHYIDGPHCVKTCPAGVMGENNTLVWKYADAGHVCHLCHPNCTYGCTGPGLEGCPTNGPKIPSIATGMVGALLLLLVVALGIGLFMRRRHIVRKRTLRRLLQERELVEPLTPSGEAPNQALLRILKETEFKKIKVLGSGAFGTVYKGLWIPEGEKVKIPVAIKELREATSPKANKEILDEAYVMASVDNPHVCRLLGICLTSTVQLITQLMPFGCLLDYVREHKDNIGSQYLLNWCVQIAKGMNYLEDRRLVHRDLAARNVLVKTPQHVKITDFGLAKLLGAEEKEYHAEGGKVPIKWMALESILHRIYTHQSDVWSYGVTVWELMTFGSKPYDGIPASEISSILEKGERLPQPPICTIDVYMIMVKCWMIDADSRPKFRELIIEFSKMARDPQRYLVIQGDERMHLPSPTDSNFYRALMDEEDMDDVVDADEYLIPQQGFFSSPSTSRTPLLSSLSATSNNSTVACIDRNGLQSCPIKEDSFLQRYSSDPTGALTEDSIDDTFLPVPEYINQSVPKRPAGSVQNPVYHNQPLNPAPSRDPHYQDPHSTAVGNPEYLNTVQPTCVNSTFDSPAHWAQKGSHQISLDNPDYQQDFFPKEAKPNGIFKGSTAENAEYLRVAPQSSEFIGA
Casein kinase I isoform delta (Homo sapiens), sequence (P48730 whole entry, looked up, canonical isoform): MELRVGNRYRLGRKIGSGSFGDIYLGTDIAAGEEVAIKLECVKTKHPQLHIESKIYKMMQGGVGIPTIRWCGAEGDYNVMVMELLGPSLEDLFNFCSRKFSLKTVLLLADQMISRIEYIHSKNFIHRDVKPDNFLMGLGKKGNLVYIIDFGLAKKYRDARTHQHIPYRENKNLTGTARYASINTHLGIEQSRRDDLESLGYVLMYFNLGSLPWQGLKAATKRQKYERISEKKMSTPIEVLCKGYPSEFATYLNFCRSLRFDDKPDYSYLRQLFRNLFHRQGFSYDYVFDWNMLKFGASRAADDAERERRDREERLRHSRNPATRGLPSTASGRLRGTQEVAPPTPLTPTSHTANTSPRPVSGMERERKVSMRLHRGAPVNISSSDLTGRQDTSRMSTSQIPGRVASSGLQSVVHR
Casein kinase I isoform gamma-2 (Homo sapiens), sequence (P78368 whole entry, looked up, canonical isoform): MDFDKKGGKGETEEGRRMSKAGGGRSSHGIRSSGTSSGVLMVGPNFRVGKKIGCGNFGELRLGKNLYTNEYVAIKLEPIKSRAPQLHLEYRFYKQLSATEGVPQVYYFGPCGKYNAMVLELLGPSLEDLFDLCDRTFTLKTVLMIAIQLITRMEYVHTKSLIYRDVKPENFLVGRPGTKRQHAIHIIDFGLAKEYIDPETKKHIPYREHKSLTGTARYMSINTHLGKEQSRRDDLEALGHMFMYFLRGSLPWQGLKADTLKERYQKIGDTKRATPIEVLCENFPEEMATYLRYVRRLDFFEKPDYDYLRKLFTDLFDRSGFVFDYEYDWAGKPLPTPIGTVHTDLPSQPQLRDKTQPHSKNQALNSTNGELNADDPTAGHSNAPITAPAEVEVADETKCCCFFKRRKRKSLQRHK
Calcium/calmodulin-dependent protein kinase type 1 (Homo sapiens), sequence (Q14012 whole entry, looked up): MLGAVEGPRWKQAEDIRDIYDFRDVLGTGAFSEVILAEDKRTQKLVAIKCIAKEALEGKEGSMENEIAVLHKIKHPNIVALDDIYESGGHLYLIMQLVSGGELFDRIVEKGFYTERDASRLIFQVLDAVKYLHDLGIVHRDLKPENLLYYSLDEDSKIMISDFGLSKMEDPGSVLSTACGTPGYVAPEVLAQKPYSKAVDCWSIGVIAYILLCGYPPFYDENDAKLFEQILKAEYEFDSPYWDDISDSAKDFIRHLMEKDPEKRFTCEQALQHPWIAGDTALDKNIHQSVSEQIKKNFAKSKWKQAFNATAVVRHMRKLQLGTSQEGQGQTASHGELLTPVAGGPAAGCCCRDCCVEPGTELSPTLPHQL
Translocator protein (Rattus norvegicus), sequence (P16257 whole entry, looked up): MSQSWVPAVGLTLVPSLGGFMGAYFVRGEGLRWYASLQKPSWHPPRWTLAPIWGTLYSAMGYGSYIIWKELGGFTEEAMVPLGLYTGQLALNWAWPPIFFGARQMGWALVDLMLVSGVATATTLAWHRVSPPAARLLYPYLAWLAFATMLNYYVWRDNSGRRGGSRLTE

COc1ccc2c(c1)O[C@@H](c1ccc(OC)c(OC)c1)C[C@H]2NC(=O)C1(c2ccc3c(c2)OC(F)(F)O3)CC1 [A-1596586]
-6.1%: % Inhibition of Control Specific Binding (Mean n=2) [8]
19.6 nM: Ki [7]
95.9%: % Inhibition of Control Specific Binding (Mean n=2) [24]
35.1%: % Inhibition of Control Specific Binding (Mean n=2) [20]
7.71: pKi [7]
40.8%: % Inhibition of Control Specific Binding (Mean n=2) [25]
active: inhibition [3] 90.5%
inactive: residual activity [1] 80% | residual activity [2] 100% | residual activity [4] 100% | residual activity [5] 75% | residual activity [6] 94% | residual activity [10] 89% | residual activity [11] 99% | residual activity [12] 93% | inhibition [13] -7.47% | residual activity [14] 85% | residual activity [15] 100% | residual activity [16] 91% | residual activity [17] 100% | residual activity [18] 100% | residual activity [21] 100% | residual activity [22] 76% | residual activity [23] 100% | residual activity [26] 61% | residual activity [27] 98% | residual activity [28] 96% | residual activity [29] 100% | residual activity [30] 87% | residual activity [31] 100% | residual activity [32] 100% | residual activity [33] 100% | residual activity [34] 100% | residual activity [35] 100% | residual activity [36] 86% | residual activity [38] 91% | residual activity [39] 95% | residual activity [40] 98% | residual activity [41] 96% | residual activity [42] 88% | residual activity [43] 92% | residual activity [44] 98%
19.2%: % Inhibition of Control Specific Binding (Mean n=2) [19]
-1.9%: % Inhibition of Control Specific Binding (Mean n=2) [37]
34.6%: inhibition at 90 min, 10 µM [9]

COc1ccc2c(c1)O[C@H](c1ccc(OC)c(OC)c1)C[C@@H]2NC(=O)C1(c2ccc3c(c2)OC(F)(F)O3)CC1 [A-1596584]
5%: % Inhibition of Control Specific Binding (Mean n=2) [19]
5.1%: % Inhibition of Control Specific Binding (Mean n=2) [37]
218 nM: Ki [7]
6.66: pKi [7]
inactive: residual activity [1] 93% | residual activity [2] 100% | residual activity [4] 97% | residual activity [5] 93% | residual activity [6] 100% | residual activity [10] 100% | residual activity [11] 100% | residual activity [12] 92% | inhibition [13] -6.5% | residual activity [14] 100% | residual activity [15] 100% | residual activity [16] 100% | residual activity [17] 100% | residual activity [18] 100% | residual activity [21] 100% | residual activity [22] 94% | residual activity [23] 92% | residual activity [26] 85% | residual activity [27] 100% | residual activity [28] 92% | residual activity [29] 100% | residual activity [30] 100% | residual activity [31] 100% | residual activity [32] 100% | residual activity [33] 100% | residual activity [34] 92% | residual activity [35] 100% | residual activity [36] 82% | residual activity [38] 84% | residual activity [39] 100% | residual activity [40] 100% | residual activity [41] 100% | residual activity [42] 95% | residual activity [43] 100% | residual activity [44] 100%
4%: % Inhibition of Control Specific Binding (Mean n=2) [8]
46%: % Inhibition of Control Specific Binding (Mean n=2) [25]
79.1%: % Inhibition of Control Specific Binding (Mean n=2) [24]
active: inhibition [3] 66.6%
2.6%: inhibition at 90 min, 10 µM [9]
33.1%: % Inhibition of Control Specific Binding (Mean n=2) [20]
